# According to patent US20220380375A1, “SUBSTITUTED AROMATIC FUSED RING DERIVATIVE AND COMPOSITION COMPRISING SAME, AND USE THEREOF” (Shenzhen TargetRx, Inc., priority 2019, published 2022):
# What was measured:
# Format in all cases: cell-based
# [1] = tested on: Ba/F3 FLT3-ITD cells; assay: Cytotoxicity assay (CellTiter-Glo), Ba/F3 FLT3-ITD; details: ratio of Ba/F3 parental IC50 to Ba/F3 FLT3-ITD IC50
# Protocol: (§1) Inhibitory effects of example compounds on the activity of Ba/F3 parental generation, Ba/F3 KIF5B-RET, Ba/F3 KIF5B-RET^V804M, Ba/F3 KIF5B-RET^V804L, Ba/F3 KIF5B-RET^G810R, Ba/F3 FLT3-ITD, Ba/F3 FLT3-ITD^D835Y, Ba/F3 FLT3-ITD^F691L cells were determined.
# (§2) Materials and reagents: fetal bovine serum FBS (GIBCO, Cat #10099141), CellTiter-Glo® Luminescent Cell Viability Assay kit (Promega, Cat #G7572), 96-well black-wall clear flat-bottom plate (Corning®, Cat #3603).
# (§3) 1. Cells in the logarithmic growth phase were harvested and counted with a […]. Cell viability was detected by a trypan blue exclusion method, ensuring that cell viability was 90% or more; 2. Cell concentration was adjusted to about 3000 cells/well; 90 μl of cell suspension was added to each well of the 96-well plate; 3. The cells in the 96-well plate were incubated overnight under the condition of 37° C., 5% CO2, and 95% humidity.
# (§4) 1. A series of compound solutions were formulated by 3.16-fold serial dilution starting from a concentration of 10 μM, resulting in 9 concentrations. 10 μL of the compound solutions were added in each well of the 96-well plate seeded with cells in triplicate for each compound concentration; 2. The cells in the 96-well plate added with compounds were further incubated under the condition of 37° C., 5% CO2, and 95% humidity for 72 hrs, and then CTG analysis was carried out.
# (§5) 1. CTG reagent was thawed, and the cell plate was equilibrated at room temperature for 30 minutes; 2. An equal volume […] of CTG solution was added to each well; 3. The cell plate was shaken on an orbital shaker for 5 minutes to lyse the cells; 4. The cell plate was placed at RT for 20 minutes to stabilize the luminescence signal; 5. Luminescence value was read.
# (§6) Data were Analyzed by GraphPad Prism 5.0 Software, and Fitted by Nonlinear S-Curve Regression to obtain a dose-response curve, from which IC50 values were calculated.
# (§7) Cell survival rate (%)=(luminescence value of drug to be tested−luminescence value of culture medium control)/(luminescence value of cell control−luminescence value of culture medium control)×100%.
# [2] = target: T1, Ba/F3 FLT3-ITD cells (Homo sapiens, UniProt P36888, cells depend on it, form not given); assay: Cytotoxicity assay (CellTiter-Glo), Ba/F3 FLT3-ITD; details: CellTiter-Glo, 72 hrs; read-out: Ba/F3 FLT3-ITD IC50
# T1 construct: Ba/F3 FLT3-ITD IC50 (nM); other: CellTiter-Glo, 72 hrs
# T1 sequence (P36888 1-993): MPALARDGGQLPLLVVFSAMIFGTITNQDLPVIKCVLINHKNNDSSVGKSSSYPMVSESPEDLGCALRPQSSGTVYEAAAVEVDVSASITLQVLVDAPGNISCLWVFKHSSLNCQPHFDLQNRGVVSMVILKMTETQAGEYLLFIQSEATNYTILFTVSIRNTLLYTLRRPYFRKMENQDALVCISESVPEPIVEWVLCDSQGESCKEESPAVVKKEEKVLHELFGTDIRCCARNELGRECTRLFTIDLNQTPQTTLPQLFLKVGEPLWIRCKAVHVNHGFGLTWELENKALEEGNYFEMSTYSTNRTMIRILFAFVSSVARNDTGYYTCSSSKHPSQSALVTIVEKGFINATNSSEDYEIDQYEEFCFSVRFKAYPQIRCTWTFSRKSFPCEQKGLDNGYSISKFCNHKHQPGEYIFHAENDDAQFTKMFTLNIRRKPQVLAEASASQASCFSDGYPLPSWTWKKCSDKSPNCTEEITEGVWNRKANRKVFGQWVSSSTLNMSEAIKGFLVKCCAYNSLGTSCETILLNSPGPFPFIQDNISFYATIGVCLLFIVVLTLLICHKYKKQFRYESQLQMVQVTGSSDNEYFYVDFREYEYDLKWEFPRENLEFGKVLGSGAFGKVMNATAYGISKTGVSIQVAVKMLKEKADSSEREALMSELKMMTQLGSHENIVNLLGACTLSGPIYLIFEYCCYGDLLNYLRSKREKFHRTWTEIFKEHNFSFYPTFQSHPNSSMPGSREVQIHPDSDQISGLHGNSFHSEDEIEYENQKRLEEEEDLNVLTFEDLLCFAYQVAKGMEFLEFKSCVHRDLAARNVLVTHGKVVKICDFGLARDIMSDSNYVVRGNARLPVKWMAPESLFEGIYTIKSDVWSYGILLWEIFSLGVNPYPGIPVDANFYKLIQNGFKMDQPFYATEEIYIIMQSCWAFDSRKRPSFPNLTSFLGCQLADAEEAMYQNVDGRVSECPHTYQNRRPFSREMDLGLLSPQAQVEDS
# Protocol: as §1, §2, §3, §4, §5, §6, §7
# [3] = tested on: Ba/F3 parental generation cells; assay: Cytotoxicity assay (CellTiter-Glo), Ba/F3 parental; details: Mus musculus, BaF3, Table 2, 72 hrs
# Protocol: as §1, §2, §3, §4, §5, §6, §7
# [4] = tested on: Ba/F3 KIF5B-RET^G810R cells; assay: Cytotoxicity assay (CellTiter-Glo), Ba/F3 KIF5B-RET G810R; details: ratio of Ba/F3 parental IC50 to Ba/F3 KIF5B-RET^G810R IC50
# Protocol: as §1, §2, §3, §4, §5, §6, §7
# [5] = target: T2, Ba/F3 KIF5B-RET^G810R cells (Homo sapiens, UniProt P07949, G810R, cells depend on it); assay: as above; details: CellTiter-Glo, 72 hrs; read-out: Ba/F3 KIF5B-RET^G810R IC50
# T2 construct: Ba/F3 KIF5B-RET^G810R IC50 (nM); other: CellTiter-Glo, 72 hrs; fused on or other part: P33176 (Kinesin-1 heavy chain)
# Protocol: as §1, §2, §3, §4, §5, §6, §7
# T2 sequence (P07949 whole entry G810R, the tested form may be a part): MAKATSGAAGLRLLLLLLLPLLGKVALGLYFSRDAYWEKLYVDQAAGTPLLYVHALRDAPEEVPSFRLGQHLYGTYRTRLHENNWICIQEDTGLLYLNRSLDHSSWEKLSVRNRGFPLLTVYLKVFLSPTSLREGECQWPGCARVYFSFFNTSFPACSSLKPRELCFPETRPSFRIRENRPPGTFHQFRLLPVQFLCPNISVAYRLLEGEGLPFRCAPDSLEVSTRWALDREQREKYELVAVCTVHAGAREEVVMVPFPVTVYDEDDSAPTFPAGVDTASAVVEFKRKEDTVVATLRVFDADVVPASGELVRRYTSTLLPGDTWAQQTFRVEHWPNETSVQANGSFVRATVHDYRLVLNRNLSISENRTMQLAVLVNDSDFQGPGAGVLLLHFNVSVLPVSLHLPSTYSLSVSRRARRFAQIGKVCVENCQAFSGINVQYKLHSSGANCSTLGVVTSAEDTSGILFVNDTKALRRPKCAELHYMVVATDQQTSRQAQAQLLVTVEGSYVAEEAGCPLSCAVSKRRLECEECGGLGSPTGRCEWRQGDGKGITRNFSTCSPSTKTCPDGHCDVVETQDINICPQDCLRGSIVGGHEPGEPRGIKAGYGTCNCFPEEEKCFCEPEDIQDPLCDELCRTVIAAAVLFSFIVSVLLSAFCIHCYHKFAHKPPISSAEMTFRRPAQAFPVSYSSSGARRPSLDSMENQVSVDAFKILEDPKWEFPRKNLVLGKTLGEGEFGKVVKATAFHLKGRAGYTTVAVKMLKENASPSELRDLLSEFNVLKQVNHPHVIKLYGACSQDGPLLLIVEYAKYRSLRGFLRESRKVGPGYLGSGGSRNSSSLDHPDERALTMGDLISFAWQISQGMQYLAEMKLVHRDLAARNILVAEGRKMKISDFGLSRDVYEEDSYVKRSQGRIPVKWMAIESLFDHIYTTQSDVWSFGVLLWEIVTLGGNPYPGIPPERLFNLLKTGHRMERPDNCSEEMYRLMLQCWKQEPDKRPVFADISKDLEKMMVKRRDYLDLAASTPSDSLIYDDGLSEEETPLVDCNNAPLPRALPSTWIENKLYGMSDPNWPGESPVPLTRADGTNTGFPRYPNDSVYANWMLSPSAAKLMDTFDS
Structure (SMILES),Ba/F3 FLT3-ITD Selectivity on parental generation [1],GI50 [2] [nM],IC50 [3] [nM],Ba/F3 KIF5B-RET^G810R Selectivity on parental generation [4],GI50 [5] [nM]
"CC(C)n1nc(-c2ccc(CC(=O)Nc3cc(C(C)(C)C(F)(F)F)on3)cn2)c2c(N)ncnc21 [Compound T-7, 2-(6-(4-amino-1-isopropyl-1H-pyrazolo[3,4-d]pyrimidin-3-yl)pyridin-3-yl)-N-(5-(1,1,1-trifluoro-2-methylprop-2-yl)isoxazol-3-yl)acetamide]",3280.6,0.1,328,47.4,6.92
"CC(C)n1nc(-c2ccc(CC(=O)Nc3cc(C(C)(C)C(F)(F)F)no3)cn2)c2c(N)ncnc21 [Compound T-9, 2-(6-(4-amino-1-isopropyl-1H-pyrazolo[3,4-d]pyrimidin-3-yl)pyridin-3-yl)-N-(3-(1,1,1-trifluoro-2-methylprop-2-yl)isoxazol-5-yl)acetamide]",750.1,5.49,4120,86.3,47.7
"CC(C)n1nc(-c2ccc(NC(=O)Nc3cc(C(F)(F)F)ccc3F)cc2)c2c(N)ncnc21 [AD80, reference compound]",1211.9,0.67,812,103.0,7.88
"CC(C)n1nc(-c2ccc(NC(=O)Nc3cc(C(C)(C)C(F)(F)F)on3)cc2)c2c(N)ncnc21 [Compound T-2, 1-(4-(4-amino-1-isopropyl-1H-pyrazolo[3,4-d]pyrimidin-3-yl)phenyl)-3-(5-(1,1,1-trifluoro-2-methylprop-2-yl)isoxazol-3-yl)urea]",824.0,0.41,338,113.4,2.98
"CC(C)c1nc(-c2ccc(CC(=O)Nc3cc(C(C)(C)C(F)(F)F)on3)cc2)c2c(N)ncnn12 [Compound T-10, 2-(4-(4-amino-7-isopropylimidazo[5,1-f][1,2,4]triazin-5-yl)phenyl)-N-(5-(1,1,1-trifluoro-2-methylprop-2-yl)isoxazol-3-yl)acetamide]",7006.3,0.32,2240,806.5,2.78
"CC(C)n1nc(-c2ccc(CC(=O)Nc3cc(C(C)(C)C(F)(F)F)on3)cc2)c2c(N)ncnc21 [Compound T-1, 2-(4-(4-amino-1-isopropyl-1H-pyrazolo[3,4-d]pyrimidin-3-yl)phenyl)-N-(5-(1,1,1-trifluoro-2-methylprop-2-yl)isoxazol-3-yl)acetamide]",5227.1,0.31,1620,613.8,2.64
"CC(C)c1cc(-c2ccc(CC(=O)Nc3cc(C(C)(C)C(F)(F)F)on3)cc2)c2c(N)ncnn12 [Compound T-5, 2-(4-(4-amino-7-isopropylpyrrolo[2,1-f][1,2,4]triazin-5-yl)phenyl)-N-(5-(1,1,1-trifluoro-2-methylprop-2-yl)isoxazol-3-yl)acetamide]",2530.7,1.89,4780,351.7,13.6
"CC(C)c1nc(-c2ccc(CC(=O)Nc3cc(C(C)(C)C(F)(F)F)on3)cc2)c2c(N)nccn12 [Compound T-4, 2-(4-(8-amino-3-isopropylimidazo[1,5-a]pyrazin-1-yl)phenyl)-N-(5-(1,1,1-trifluoro-2-methylprop-2-yl)isoxazol-3-yl)acetamide]",7011.0,0.1,701,27.5,25.5
"[2H]C([2H])([2H])C(n1cc(-c2ccc(CC(=O)Nc3cc(C(C)(C)C(F)(F)F)on3)cc2)c2c(N)ncnc21)C([2H])([2H])[2H] [Compound T-12, 2-(4-(4-amino-7-(propen-2-yl-1,1,1,3,3,d6)-7H-pyrrolo[2,3-d]pyrimidin-5-yl)phenyl)-N-(5-(1,1,1-trifluo-2-methylpropan-2-yl)isoxazol-3-yl)acetamide]",1531.4,0.7,1070,167.5,6.4
"[2H]C([2H])([2H])C(n1nc(-c2ccc(CC(=O)Nc3cc(C(C)(C)C(F)(F)F)no3)cc2)c2c(N)ncnc21)C([2H])([2H])[2H] [Compound T-11, 2-(4-(4-amino-1-(propan-2-yl-1,1,1,3,3,3-d6)-1H-pyrazolo[3,4-d]pyrimidin-3-yl)phenyl)-N-(3-(1,1,1-trifluoro-2-methylpropan-2-yl)isoxazol-5-yl)acetamide]",7543.8,0.73,5510,939.8,5.86
"CC(C)n1nc(-c2ccc(CC(=O)Nc3cc(C(C)(C)C(F)(F)F)no3)cc2)c2c(N)ncnc21 [Compound T-8, 2-(4-(4-amino-1-isopropyl-1H-pyrazolo[3,4-d]pyrimidin-3-yl)phenyl)-N-(3-(1,1,1-trifluoro-2-methylprop-2-yl)isoxazol-5-yl)acetamide]",14708,0.25,3680,1538.5,2.39
"CC(C)n1nc(-c2ccc(CC(=O)Nc3cc(C(C)(C)C(F)(F)F)on3)c(F)c2)c2c(N)ncnc21 [Compound T-6, 2-(4-(4-amino-1-isopropyl-1H-pyrazolo[3,4-d]pyrimidin-3-yl)-2-fluorophenyl)-N-(5-(1,1,1-trifluoro-2-methylprop-2-yl)isoxazol-3-yl)acetamide]",5238.7,0.4,2100,717.6,2.92
"CC(C)n1cc(-c2ccc(CC(=O)Nc3cc(C(C)(C)C(F)(F)F)on3)cc2)c2c(N)ncnc21 [Compound T-3, 2-(4-(4-amino-7-isopropyl-7H-pyrrolo[2,3-d]pyrimidin-5-yl)phenyl)-N-(5-(1,1,1-trifluoro-2-methylprop-2-yl)isoxazol-3-yl)acetamide]",7244.4,0.1,724,188.7,3.84
